# Assay results reported in patent publication US9956268B2, “Neuropeptide Y treatment of autoimmune disease” (priority 2012, dated 2018).
# Key:
# [1] = system: innate immune cytokines IL-1β or TNF-α; conditions: oral, recent EAE experiments; cited from earlier work
# [2] = system: splenocytes of recipients stimulated with MOG peptide 35-55; assay: Cytokine secretion, splenic lymphocytes of recipients of donor cells; format: in vivo, B6 mice
# Experimental: (§1) Thirty days after inoculation and after peak score of clinical attack, all spleens from each treatment group were aseptically removed, single cell suspensions prepared, and red cell lysis performed by adding 2-3 ml sterile water to single cells for 5 seconds, and once the solution became transparent, adding AIM-V media to a 50 ml tube. Splenocytes from grouped saline (mock) fed, 1 μg or 10 μg neuropeptide Y fed mice were re-stimulated with MOG peptide 35-55 at a final concentration of 10 μg/ml for 48 hours in serum free medium (AIM-V medium, Gibco BRL, Grand Island, N.Y.) with 2×10^5 cells/[…] in triplicate in 96 well U-bottomed plates in a humidified 5% CO2/95% air incubator at 37° C. Following incubation, cells were collected, washed twice in PBS, and viability determined by standard Trypan blue exclusion. Viable concentrations were adjusted to 10^7 cells/0.5 ml Dulbecco's PBS immediately prior to i.p. injection into active MOG peptide 35-55 immunized recipient mice during ongoing disease (˜day 17 post immunization). Following administration of neuropeptide Y or adoptive transfer, clinical outcome is measured by comparing the difference between group mean active treatment and placebo group scores from day 17-30 post immunization.
# (§2) Spleens and spinal cords (CNS) from each treatment group were aseptically removed and single cell suspensions prepared. In spinal cords, whole cords were passed through a cell strainer for CNS lymphocytes (B & D, Franklin Lakes, N.J.) and spun at 600 rpm several times to separate lymphocytes from CNS tissue. Splenocytes and cord lymphocytes from grouped saline fed or 10 mcg NPY fed mice were stimulated with 10 mcg MOG peptide 35-55×48 hours as previously described (5, 6). Murine cytokine responses were examined using a customized RayBio Mouse Cytokine Inflammatory Antibody Array including innate cytokine IL-1β and TNF-α, IL-17 (Teff), Th1-like (IL-2, IFN-γ), Th2-like cytokines (IL-4, IL-10, IL-13) and IL-12p70 using the RayBioantibody array Analysis tool application (RayBiotech, Inc, Norcross, Ga.). Results were grouped from mice fed saline or mice fed with NPY from grouped samples of two separate experiments (each sample performed in duplicate) and expressed as pg/ml±SEM (student t-test).
# [3] = system: CNS lymphocytes stimulated with MOG peptide 35-55; assay: Cytokine secretion, MOG re-stimulated CNS (spinal cord) lymphocytes of fed mice; format: in vivo, B6 mice
# Experimental: as §2
# [4] = system: spinal cords of MOG peptide 35-55 immunized B6 mice; assay: Spinal cord histology, inflammatory foci, actively fed mice; format: in vivo; conditions: thirty days following immunization, mock fed 11.6±0.5
# Experimental: Following sacrifice, spinal cords were removed and immersion fixed in 10% neutral buffered formalin for a minimum of two weeks. After fixation, cords were sectioned in entirety in the horizontal plane at approximately 3 mm intervals and processed to paraffin. Paraffin blocks were sectioned at 6-8 microns, and step sections were stained with hematoxylin and eosin and examined by light microscopy. Cord sections were evaluated independently for foci of inflammation by a blinded observer (SAB), without knowledge of the treatment status of the mice prior to sacrifice. Spinal cord tissue was sampled in an identical fashion for each animal and numbers of inflammatory foci per high-powered field (HPF) (>20 perivascular lymphocytes) in the parenchyma were counted.
# CD4+CD25+FoxP3+ Treg = assay: Phenotypic analysis (FACS) of Treg frequency; format: in vivo, B6 mice; conditions: data not shown
# Experimental: CD25 and FOXP3 expression by CD3+CD4+ lymphocytes was analyzed using the Beckman Coulter 10-Color Gallios Flow Cytometer and mouse regulatory T Cell Staining Kit with PE Foxp3 FJK-16s, FITC CD4, APC CD25 (eBioscience, San Diego, Calif.) following the manufacturer's instructions.
# [5] = system: actively immunized recipients (ongoing disease); assay: Adoptive transfer of in vitro neuropeptide Y treated MOG restimulated activated macrophages; format: in vivo; conditions: preliminary experiments
# [6] = system: splenic lymphocytes stimulated with MOG peptide 35-55; assay: Cytokine secretion, MOG re-stimulated splenic lymphocytes of fed mice; format: in vivo, B6 mice
# Experimental: as §2
# [7] = system: spinal cords of recipient mice; assay: Spinal cord histology, inflammatory foci, recipients of adoptively transferred cells; format: in vivo, B6 mice; conditions: thirteen days following adoptive transfer, placebo donors 7.48±0.28
# Experimental: as §1, with “Viable concentrations were adjusted to 10^7 cells/0.5 ml Dulbecco's PBS immediately prior to i.p. injection into active MOG peptide 35-55 immunized recipient mice during ongoing disease (˜day 17 post immunization).” left out
# Following sacrifice, spinal cords were removed and immersion fixed in 10% neutral buffered formalin for a minimum of two weeks. […] Cord sections were evaluated independently for foci of inflammation by a blinded observer (SAB), without knowledge of the treatment status of the mice prior to sacrifice. […]
# [8] = system: experimental autoimmune encephalomyelitis; conditions: parenteral, mice; cited from earlier work
# [9] = system: MOG peptide 35-55 immunized B6 mice (experimental autoimmune encephalomyelitis); assay: Active EAE, ingested neuropeptide Y, clinical score; format: in vivo; conditions: vs placebo, p<0.001 ANOVA
# [10] = system: CNS lymphocytes of recipients stimulated with MOG peptide 35-55; assay: Cytokine secretion, CNS lymphocytes of recipients of donor cells; format: in vivo, B6 mice
# Experimental: as §1, §2
# [11] = Toxicity on extended oral administration; format: in vivo; conditions: orally administered to mice over an extended time period
# [12] = system: active MOG peptide 35-55 immunized recipient mice; assay: Adoptive transfer of splenocytes from neuropeptide Y fed donors, clinical score of recipients; format: in vivo, B6 mice; conditions: placebo donors maximum 2.3
# [13] = splenic lymphocytes of recipients of fed donor cells vs mock
# [14] = both fed groups (1 & 10 mcg) vs mock fed
# [15] = CNS lymphocytes of recipients of fed donor cells vs mock
# [16] = CNS lymphocytes of recipients, 10 mcg fed group vs mock
substance,measurement,setting,value
"Adrenocorticotropin hormone (SYSMEHFRWGKPVGKKRRPVKVYPNGAEDESAEAFPLEF; Corticotropin; UniProt P01189 138-176, looked up) [ACTH]",reduction of innate immune cytokines IL-1β or TNF-α,[1],no reduction
Neuropeptide Y,IFN-γ level,[2]; [13],significant decreases
same,IL-1β level,[2]; [13],significant decreases
same,IL-12 level,[2]; [13],significant decreases
same,IL-17 (Teff) level,[2]; [13],significant decreases
same,MOG induced IL-13 production,[2]; [13],increased
same,TNF-α level,[2]; [13],significant decreases
same,IL-2 level,"[2]; splenic lymphocytes of recipients, 10 mcg fed donor cells vs mock",significant decreases
same,MOG induced IL-13 production,[3]; dosed vs mock dosed,increased
same,IFN-γ level,[3]; fed vs mock fed,significant decreases
same,IL-1β level,[3]; fed vs mock fed,significant decreases
same,IL-2 level,[3]; fed vs mock fed,significant decreases
same,IL-12 level,[3]; fed vs mock fed,significant decreases
same,IL-17 (Teff) level,[3]; fed vs mock fed,significant decreases
same,TNF-α level,[3]; fed vs mock fed,significant decreases
same,mean group inflammatory score (inflammatory foci),[4]; 1 mcg fed group,6.4±0.16
same,mean group inflammatory score (inflammatory foci),[4]; 10 mcg fed group,5.55±0.28
same,CD4+CD25+FoxP3+ cell frequency,CD4+CD25+FoxP3+ Treg; actively fed mice vs mock fed,no significant increase
same,CD4+CD25+FoxP3+ cell frequency,CD4+CD25+FoxP3+ Treg; recipients of actively fed donor cells vs mock,no significant increase
same,ongoing disease after adoptive transfer,[5],robust inhibition
same,IL-12p70 level,[6]; 10 mcg dosed vs mock fed,decreased
same,TNF-α level,[6]; 10 mcg dosed vs mock fed,decreased
same,IFN-γ level,[6]; [14],significant decreases
same,IL-1β level,[6]; [14],significant decreases
same,IL-2 level,[6]; [14],significant decreases
same,MOG induced IL-4 production,[6]; dosed vs mock dosed,increased
same,MOG induced IL-10 production,[6]; dosed vs mock dosed,increased
same,MOG induced IL-13 production,[6]; dosed vs mock dosed,increased
same,mean group inflammatory score (CNS inflammatory foci),[7]; recipients of 1 mcg fed donors,4.87±0.22
same,mean group inflammatory score (CNS inflammatory foci),[7]; recipients of 10 mcg fed donors,5.91±0.22
same,induction of experimental autoimmune encephalomyelitis,[8],significantly inhibits
same,group clinical score,"[9]; 1 mcg fed (gavage) from day 17, days 17-30 post immunization",significant decreases in group clinical scores
same,group clinical score,"[9]; 10 mcg fed (gavage) from day 17, days 17-30 post immunization",significant decreases in group clinical scores
same,IL-1β level,[10]; [15],significant decreases
same,IL-17 (Teff) level,[10]; [15],significant decreases
same,IL-12 level,"[10]; CNS lymphocytes of recipients of fed donor cells vs mock, p<0.03 (FIG. 8 legend)",decreased
same,MOG induced IL-10 production,"[10]; CNS lymphocytes of recipients, 1 mcg fed group vs mock",increased
same,IFN-γ level,[10]; [16],significant decreases
same,IL-2 level,[10]; [16],significant decreases
same,TNF-α level,[10]; [16],significant decreases
same,MOG induced IL-13 production,"[10]; CNS lymphocytes of recipients, both dosed groups vs mock",increased
same,toxicity,[11],no detectable toxicity
same,group clinical score at day 30,[12]; recipients of donor splenocytes from 1 mcg fed mice,1.4
same,group clinical score at day 30,[12]; recipients of donor splenocytes from 10 mcg fed mice,0.88
